Test results taken from patent publication US8936809B2, “Method for treating prostate diseases based on local delivery of active substances” (Lidds AB, priority 2005, dated 2015).

Assay: Observation of behaviour and side effects (diarrhea) in dogs (Example 1)
Type: in vivo, dog
Description: First, four male dogs (H1-H4) (Labrador, approx. 1 year of age and weight 30 kg) were given 2-hydroxy-flutamide (25 mg) by single bolus doses intravenously during 30 seconds. The intravenous solution base was sterile saline […], sterile polyethylene glycol 400 46% and ethanol (95%) 6%. Blood samples of 1.0 ml were taken from the Cephalic vein at 5, 10, 15, 30, 60, 90, 120, 240, 360, and 600 minutes. The blood samples were immediately centrifuged at 3000 rpm and the plasma samples were frozen at −80° C. until analysis.
One week later, the same animals were given 2-hydroxy-flutamide locally by a controlled release pharmaceutical composition in the prostate tissue. The 2-hydroxy- flutamide doses were 0 mg (H1), 30 mg (H3), 60 mg (H2) and 120 mg (H4), and each dog was given one implant only. Where H1 was a control given the composition without 2-hydroxy-flutamide. All doses of 2-hydroxy-flutamide were given after an overnight fast. Dog 1 (H1) and dog 3 (H3) were given an enema preoperatively. After the local prostate application of the pharmaceutical composition through rectum, an antibiotic (Quinolon) was administered in normal doses.

CC(C)(O)C(=O)Nc1ccc([N+](=O)[O-])c(C(F)(F)F)c1 [2-hydroxy-flutamide]
diarrhea (after intravenous administration 25 mg): all dogs suffered from diarrhea
diarrhea (after local administration of the controlled release composition in the prostate tissue): not observed in any animals
